Values of other authors as cited in PubChem BioAssay AID1259409 (Chemical Carcinogenesis Research Information System (CCRIS), 2018).

Test system: rodent chemically induced tumor inhibition, incidence and multiplicity
Test: CCRIS tumor inhibitor studies
Details: Dose [Inhibitor]: 0, Route [Inhibitor]: ORAL, Species: RAT, Promoter: NONE USED

O=c1oc2c(O)c(O)cc3c(=O)oc4c(O)c(O)cc1c4c23
tumour outcome (control, treated, inhibition, significance) (Carcinogen: DIETHYLNITROSAMINE, 55-18-5, N-METHYLNITROSOUREA, 684-93-5, 1,2-DIMETHYLHYDRAZINE, 540-73-8, N-BUTYL-N-(4-HYDROXYB, Carcinogen: DIETHYLNITROSAMINE, 55-18-5, N-METHYLNITROSOUREA, 684-93-5, 1,2-DIMETHYLHYDRAZINE, 540-73-8, N-BUTYL-N-(4-HYDROXYB, 1% IN DIET FOR 4 WK BEGINNING 1 DAY PRIOR TO CARCINOGEN TREATMENT (STUDY DURATION: 36 WK), Strain/Sex: F344/MALE, Target Tissue: Type of Lesion: SMALL INTESTINE: CARCINOMA, Dose [Carcinogen]: 100 MG/KG DEN ONCE, 20 MG/KG MNU 4 TIMES, 40 MG/KG DMH 4 TIMES, 0.05% BBN IN DRINKING WATER FOR 2 WK, 0.1% DHPN IN D, Dose [Carcinogen]: 100 MG/KG DEN ONCE, 20 MG/KG MNU 4 TIMES, 40 MG/KG DMH 4 TIMES, 0.05% BBN IN DRINKING WATER FOR 2 WK, 0.1% DHPN IN D): 5/14 (36%), 0/12 (0%), 100%, p<0.05 | tumour outcome (control, treated, inhibition, significance) (Carcinogen: DIETHYLNITROSAMINE, 55-18-5, N-METHYLNITROSOUREA, 684-93-5, 1,2-DIMETHYLHYDRAZINE, 540-73-8, N-BUTYL-N-(4-HYDROXYB, Carcinogen: DIETHYLNITROSAMINE, 55-18-5, N-METHYLNITROSOUREA, 684-93-5, 1,2-DIMETHYLHYDRAZINE, 540-73-8, N-BUTYL-N-(4-HYDROXYB, 1% IN DIET FOR 4 WK BEGINNING 1 DAY PROIR TO CARCINOGEN TREATMENT (STUDY DURATION: 36 WK), Strain/Sex: F344/MALE, Target Tissue: Type of Lesion: LUNG: ADENOMA, Dose [Carcinogen]: 100 MG/KG DEN ONCE, 20 MG/KG MNU 4 TIMES, 40 MG/KG DMH 4 TIMES, 0.05% BBN IN DRINKING WATER FOR 2 WK, 0.1% DHPN IN D, Dose [Carcinogen]: 100 MG/KG DEN ONCE, 20 MG/KG MNU 4 TIMES, 40 MG/KG DMH 4 TIMES, 0.05% BBN IN DRINKING WATER FOR 2 WK, 0.1% DHPN IN D): 6/14 (43%), 1/12 (8%), 81%, not significant | tumour outcome (control, treated, inhibition, significance) (Carcinogen: DIETHYLNITROSAMINE, 55-18-5, N-METHYLNITROSOUREA, 684-93-5, 1,2-DIMETHYLHYDRAZINE, 540-73-8, N-BUTYL-N-(4-HYDROXYB, Carcinogen: DIETHYLNITROSAMINE, 55-18-5, N-METHYLNITROSOUREA, 684-93-5, 1,2-DIMETHYLHYDRAZINE, 540-73-8, N-BUTYL-N-(4-HYDROXYB, 1% IN DIET FOR 32 WK BEGINNING POST CARCINOGEN TREATMENT (STUDY DURATION: 36 WK), Strain/Sex: F344/MALE, Target Tissue: Type of Lesion: KIDNEY: ADENOMA, Dose [Carcinogen]: 100 MG/KG DEN ONCE, 20 MG/KG MNU 4 TIMES, 40 MG/KG DMH 4 TIMES, 0.05% BBN IN DRINKING WATER FOR 2 WK, 0.1% DHPN IN D, Dose [Carcinogen]: 100 MG/KG DEN ONCE, 20 MG/KG MNU 4 TIMES, 40 MG/KG DMH 4 TIMES, 0.05% BBN IN DRINKING WATER FOR 2 WK, 0.1% DHPN IN D): 4/14 (29%), 2/13 (15%), 48%, not significant | tumour outcome (control, treated, inhibition, significance) (Carcinogen: DIETHYLNITROSAMINE, 55-18-5, N-METHYLNITROSOUREA, 684-93-5, 1,2-DIMETHYLHYDRAZINE, 540-73-8, N-BUTYL-N-(4-HYDROXYB, Carcinogen: DIETHYLNITROSAMINE, 55-18-5, N-METHYLNITROSOUREA, 684-93-5, 1,2-DIMETHYLHYDRAZINE, 540-73-8, N-BUTYL-N-(4-HYDROXYB, 1% IN DIET FOR 32 WK BEGINNING POST CARCINOGEN TREATMENT (STUDY DURATION: 36 WK), Strain/Sex: F344/MALE, Target Tissue: Type of Lesion: KIDNEY: NEPHROBLASTOMA, Dose [Carcinogen]: 100 MG/KG DEN ONCE, 20 MG/KG MNU 4 TIMES, 40 MG/KG DMH 4 TIMES, 0.05% BBN IN DRINKING WATER FOR 2 WK, 0.1% DHPN IN D, Dose [Carcinogen]: 100 MG/KG DEN ONCE, 20 MG/KG MNU 4 TIMES, 40 MG/KG DMH 4 TIMES, 0.05% BBN IN DRINKING WATER FOR 2 WK, 0.1% DHPN IN D): 7/14 (50%), 5/13 (38%), 24%, not significant | tumour outcome (control, treated, inhibition, significance) (Carcinogen: DIETHYLNITROSAMINE, 55-18-5, N-METHYLNITROSOUREA, 684-93-5, 1,2-DIMETHYLHYDRAZINE, 540-73-8, N-BUTYL-N-(4-HYDROXYB, Carcinogen: DIETHYLNITROSAMINE, 55-18-5, N-METHYLNITROSOUREA, 684-93-5, 1,2-DIMETHYLHYDRAZINE, 540-73-8, N-BUTYL-N-(4-HYDROXYB, 1% IN DIET FOR 32 WK BEGINNING POST CARCINOGEN TREATMENT (STUDY DURATION: 36 WK), Strain/Sex: F344/MALE, Target Tissue: Type of Lesion: LARGE INTESTINE: CARCINOMA, Dose [Carcinogen]: 100 MG/KG DEN ONCE, 20 MG/KG MNU 4 TIMES, 40 MG/KG DMH 4 TIMES, 0.05% BBN IN DRINKING WATER FOR 2 WK, 0.1% DHPN IN D, Dose [Carcinogen]: 100 MG/KG DEN ONCE, 20 MG/KG MNU 4 TIMES, 40 MG/KG DMH 4 TIMES, 0.05% BBN IN DRINKING WATER FOR 2 WK, 0.1% DHPN IN D): 3/14 (21%), 6/12 (50%), -138%, not significant | tumour outcome (control, treated, inhibition, significance) (Carcinogen: DIETHYLNITROSAMINE, 55-18-5, N-METHYLNITROSOUREA, 684-93-5, 1,2-DIMETHYLHYDRAZINE, 540-73-8, N-BUTYL-N-(4-HYDROXYB, Carcinogen: DIETHYLNITROSAMINE, 55-18-5, N-METHYLNITROSOUREA, 684-93-5, 1,2-DIMETHYLHYDRAZINE, 540-73-8, N-BUTYL-N-(4-HYDROXYB, 1% IN DIET FOR 32 WK BEGINNING POST CARCINOGEN TREATMENT (STUDY DURATION: 36 WK), Strain/Sex: F344/MALE, Target Tissue: Type of Lesion: SMALL INTESTINE: ADENOMA, Dose [Carcinogen]: 100 MG/KG DEN ONCE, 20 MG/KG MNU 4 TIMES, 40 MG/KG DMH 4 TIMES, 0.05% BBN IN DRINKING WATER FOR 2 WK, 0.1% DHPN IN D, Dose [Carcinogen]: 100 MG/KG DEN ONCE, 20 MG/KG MNU 4 TIMES, 40 MG/KG DMH 4 TIMES, 0.05% BBN IN DRINKING WATER FOR 2 WK, 0.1% DHPN IN D): 6/14 (43%), 0/12 (0%), 100%, < p<0.05 | tumour outcome (control, treated, inhibition, significance) (Carcinogen: DIETHYLNITROSAMINE, 55-18-5, N-METHYLNITROSOUREA, 684-93-5, 1,2-DIMETHYLHYDRAZINE, 540-73-8, N-BUTYL-N-(4-HYDROXYB, Carcinogen: DIETHYLNITROSAMINE, 55-18-5, N-METHYLNITROSOUREA, 684-93-5, 1,2-DIMETHYLHYDRAZINE, 540-73-8, N-BUTYL-N-(4-HYDROXYB, 1% IN DIET FOR 32 WK BEGINNING POST CARCINOGEN TREATMENT (STUDY DURATION: 36 WK), Strain/Sex: F344/MALE, Target Tissue: Type of Lesion: SMALL INTESTINE: CARCINOMA, Dose [Carcinogen]: 100 MG/KG DEN ONCE, 20 MG/KG MNU 4 TIMES, 40 MG/KG DMH 4 TIMES, 0.05% BBN IN DRINKING WATER FOR 2 WK, 0.1% DHPN IN D, Dose [Carcinogen]: 100 MG/KG DEN ONCE, 20 MG/KG MNU 4 TIMES, 40 MG/KG DMH 4 TIMES, 0.05% BBN IN DRINKING WATER FOR 2 WK, 0.1% DHPN IN D): 5/14 (36%), 1/12 (8%), 78%, not significant | tumour outcome (control, treated, inhibition, significance) (Carcinogen: DIETHYLNITROSAMINE, 55-18-5, N-METHYLNITROSOUREA, 684-93-5, 1,2-DIMETHYLHYDRAZINE, 540-73-8, N-BUTYL-N-(4-HYDROXYBU, Carcinogen: DIETHYLNITROSAMINE, 55-18-5, N-METHYLNITROSOUREA, 684-93-5, 1,2-DIMETHYLHYDRAZINE, 540-73-8, N-BUTYL-N-(4-HYDROXYBU, 1% IN DIET FOR 32 WK BEGINNING POST CARCINOGEN TREATMENT (STUDY DURATION: 36 WK), Strain/Sex: F344/MALE, Target Tissue: Type of Lesion: LARGE INTESTINE: ADENOMA, Dose [Carcinogen]: 100 MG/KG DEN ONCE, 20 MG/KG MNU 4 TIMES, 40 MG/KG DMH 4 TIMES, 0.05% BBN IN DRINKING WATER FOR 2 WK, 0.1% DHPN IN D, Dose [Carcinogen]: 100 MG/KG DEN ONCE, 20 MG/KG MNU 4 TIMES, 40 MG/KG DMH 4 TIMES, 0.05% BBN IN DRINKING WATER FOR 2 WK, 0.1% DHPN IN D): 7/14 (50%), 3/12 (25%), 50%, not significant | tumour outcome (control, treated, inhibition, significance) (Carcinogen: DIETHYLNITROSAMINE, 55-18-5, N-METHYLNITROSOUREA, 684-93-5, 1,2-DIMETHYLHYDRAZINE, 540-73-8, N-BUTYL-N-(4-HYDROXYBU, Carcinogen: DIETHYLNITROSAMINE, 55-18-5, N-METHYLNITROSOUREA, 684-93-5, 1,2-DIMETHYLHYDRAZINE, 540-73-8, N-BUTYL-N-(4-HYDROXYBU, 1% IN DIET FOR 32 WK BEGINNING POST CARCINOGEN TREATMENT (STUDY DURATION: 36 WK), Strain/Sex: F344/MALE, Target Tissue: Type of Lesion: LUNG: ADENOMA, Dose [Carcinogen]: 100 MG/KG DEN ONCE, 20 MG/KG MNU 4 TIMES, 40 MG/KG DMH 4 TIMES, 0.05% BBN IN DRINKING WATER FOR 2 WK, 0.1% IN DRINKI, Dose [Carcinogen]: 100 MG/KG DEN ONCE, 20 MG/KG MNU 4 TIMES, 40 MG/KG DMH 4 TIMES, 0.05% BBN IN DRINKING WATER FOR 2 WK, 0.1% IN DRINKI): 6/14 (43%), 1/13 (8%), 81%, p<0.05 | tumour outcome (control, treated, inhibition, significance) (Carcinogen: N-NITROQUINOLINE-1-OXIDE, 56-57-5, 400 PPM IN DIET FOR 7 WK BEGINNING 1 WK PRIOR TO START OF CARCINOGEN TREATMENT (STUDY DURATION: 32 WK), Strain/Sex: F344\MALE, Target Tissue: Type of Lesion: TONGUE: CARCINOMA, Dose [Carcinogen]: 20 PPM IN DRINKING WATER FOR 5 WK): 9/15 (60%), 0/15 (0%), 100%, p=0.00035 | outcome (Carcinogen: N-NITROSOBENZYLMETHYLAMINE, 937-40-6, 0.4 G/KG IN DIET BEGINNING 2 WK PRIOR TO FIRST CARCINOGEN DOSE (STUDY DURATION: 20 WK), Strain/Sex: F-344/MALE, Target Tissue: Type of Lesion: ESOPHAGUS: TUMOR, Dose [Carcinogen]: 0.5, 1.25 MG/KG 1/WK FOR 18 WK): 15/15 (100%), 14/15 (93%), 7%, not calculated (low dose carcinogen); 15/15 (100% | tumour outcome (control, treated, inhibition, significance) (Carcinogen: N-NITROSOBENZYLMETHYLAMINE, 937-40-6, 0.4 G/KG IN DIET BEGINNING 2 WK PRIOR TO FIRST CARCINOGEN DOSE (STUDY DURATION: 27 WK), Strain/Sex: F-344/MALE, Target Tissue: Type of Lesion: ESOPHAGUS: TUMOR, Dose [Carcinogen]: 0.5, 1.25 MG/KG 1/WK FOR 18 WK): 15/15 (100%), 15/15 (100%), 0%, not calculated (low dose carcinogen); 15/15 (100
